Test systems include M19-MEL; XF498; LXFL 529; HOP-18; RXF 631; DLD-1; DMS-114; Hs-578T; BT-549.
Test in all cases: DTP human tumour cell line panel, 48 h

The values that follow come from ChEMBL document CHEMBL1201862, “PubChem BioAssay data set” (2004).

Structures are written as SMILES.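 Protocol summary: plate cells (96-well), add compound at 5 concentrations, incubate 48 h, interpolate endpoints linearly. GI50 = concentration required for 50% inhibition of growth.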 Activity calls are given as the source filed them. Cut-off read from the data, not from the text of the source: active = GI50 up to about 1.1 µM and inactive = higher.

What is called GI50 is the concentration that inhibits growth by half.

For `FC(F)(F)c1ccc2nc(Nc3ccc(Cl)c(Cl)c3)c(-c3ccccc3)nc2c1`, the GI50 is 48.5 µM (inactive) in the experiment with M19-MEL, 31.2 µM (inactive) in the experiment on XF498, 8.3 µM (inactive) in the experiment on LXFL 529 and > 100 µM (inactive) in the experiment with HOP-18.
Consider `COC(=O)C1=C(C(=O)OC)N(C(C)C)[C@H]2C(C(=O)OC)=C(C(=O)OC)N(C(C)C)[C@@H]12`, for which the GI50 in the experiment on RXF 631, with M19-MEL, in the experiment on XF498, in the experiment on LXFL 529, in the experiment on HOP-18 and with DLD-1 was > 100 µM (inactive) in each case. In addition, the GI50 in the experiment on DMS-114 is > 100 µM (inactive).
Regarding `[O-][Cl+3]([O-])([O-])[O-].c1ccc(-c2csc3c4ccccc4c4ccccc4[n+]23)cc1`, the GI50 was 1.61 µM (inactive) with M19-MEL; 1.79 µM (inactive) in the experiment with XF498; 1.84 µM (inactive) in the experiment with LXFL 529; 14.3 µM (inactive) in the experiment on HOP-18; 5.58 µM (inactive) in the experiment with DLD-1; 0.394 µM (active) with DMS-114.
For the molecule `C=CCC1=C2CCCCC2CCC1=O` (stereo unspecified), the GI50 in the experiment on RXF 631, in the experiment with M19-MEL, with XF498, in the experiment on LXFL 529, in the experiment with DLD-1 and in the experiment with DMS-114 was > 100 µM (inactive) each time.
As to `COC(=O)C(Cc1nc2ccc(Cl)cc2nc1O)C(=O)C(=O)Nc1cc(C)ccc1C` (stereo unspecified), the GI50 in the experiment on RXF 631, in the experiment with M19-MEL, in the experiment with XF498, in the experiment on LXFL 529, in the experiment with HOP-18 and with DLD-1 was > 100 µM (inactive) throughout. Moreover, the GI50 in the experiment on DMS-114 is > 100 µM (inactive).
As for `C=CCNc1nc2c(s1)C(=O)c1ccccc1C2=O`, the GI50 with M19-MEL is 1.76 µM (inactive); in the experiment on XF498, 20.4 µM (inactive); with LXFL 529, 11.4 µM (inactive); in the experiment on HOP-18 it was 11 µM (inactive); in the experiment with DMS-114, 1.77 µM (inactive); with Hs-578T, 32.1 µM (inactive).
In the case of `COc1cc2c[n+](C)c3c4ccccc4ccc3c2cc1OC.COc1cc2cnc3c4ccccc4ccc3c2cc1OC`, the GI50 with RXF 631 is 23 µM (inactive); in the experiment on M19-MEL it was 3.85 µM (inactive); with XF498, 5.69 µM (inactive); with LXFL 529, 2.21 µM (inactive); in the experiment with BT-549 it was 6.85 µM (inactive); in the experiment on HOP-18 it was 23.3 µM (inactive). Further, the GI50 with DLD-1 was 31.3 µM (inactive); in the experiment with DMS-114 it was 2.31 µM (inactive); in the experiment on Hs-578T, 2.31 µM (inactive).
Consider `O=C1c2ccccc2C(=O)c2cc3c(cc21)C[S+]([O-])C3`, for which the GI50 in the experiment with M19-MEL, in the experiment on LXFL 529, in the experiment with HOP-18, with DLD-1 and in the experiment with DMS-114 was > 100 µM (inactive) each time.
For `O=C1CC(=O)N(CCc2ccccc2)S(=O)(=O)N1CCc1ccccc1`, the GI50 in the experiment with M19-MEL was 32.4 µM (inactive); in the experiment with LXFL 529, 19.8 µM (inactive); in the experiment on HOP-18, 65.2 µM (inactive); in the experiment with DLD-1, 43.5 µM (inactive); in the experiment with DMS-114, 21.4 µM (inactive).
Turning to `Nc1c(-c2ccc(-c3c(N)[n+]([O-])c4ccccc4[n+]3[O-])cc2)[n+]([O-])c2ccccc2[n+]1[O-]`, the GI50 in the experiment on M19-MEL was 11.3 µM (inactive); with XF498, 11.5 µM (inactive); in the experiment with LXFL 529, 7.87 µM (inactive); with HOP-18 it was 7.67 µM (inactive); in the experiment with DLD-1 it was 11.8 µM (inactive); in the experiment with DMS-114, 3.4 µM (inactive).
As for `O=C(O)CN(c1ccccc1)S(=O)(=O)c1ccc([N+](=O)[O-])cc1`, the GI50 in the experiment on RXF 631, in the experiment with M19-MEL, in the experiment with XF498, with LXFL 529, in the experiment on HOP-18 and in the experiment on DLD-1 was > 100 µM (inactive) each time.
For the molecule `CCN(CC)CCCNc1nccc2c(C)c3c(cc12)c1cnccc1n3C`, the GI50 with M19-MEL was 0.48 µM (active); with XF498, 0.16 µM (active); with HOP-18 it was < 0.01 µM (active); in the experiment on DLD-1 it was 0.0244 µM (active); in the experiment on DMS-114, 0.0501 µM (active).
Take `COC1=CC(=O)c2ccc(C(C)C)cc2C1(C)C1=NC(C)(C)CO1` (stereo unspecified): the GI50 in the experiment on M19-MEL, in the experiment with XF498, in the experiment on LXFL 529, in the experiment on HOP-18, in the experiment with DLD-1 and in the experiment with DMS-114 was > 100 µM (inactive) each time.
Take `CC(=O)NC(CCCCNC(=O)N(C)N=O)C(=O)NCc1ccccc1` (stereo unspecified): the GI50 in the experiment with RXF 631, in the experiment on M19-MEL, in the experiment with XF498, in the experiment with LXFL 529, with DLD-1 and in the experiment with DMS-114 was > 100 µM (inactive) throughout.
As for `CCCCC(C)C(OC(=O)CC(CC(=O)O)C(=O)O)C(CC(C)CC(O)CCCCC(O)CC(O)C(C)N)OC(=O)CC(CC(=O)O)C(=O)O` (stereo unspecified), the GI50 with RXF 631, in the experiment on M19-MEL, with LXFL 529, in the experiment with HOP-18 and in the experiment on DLD-1 was > 100 µM (inactive) throughout.
`COc1cc(CCC(=O)NS(=O)(=O)c2ccccc2)cc(OC)c1OC`: the GI50 is > 100 µM (inactive) in the experiment with XF498; > 100 µM (inactive) with LXFL 529; 72.6 µM (inactive) with HOP-18; > 100 µM (inactive) in the experiment with DLD-1; > 100 µM (inactive) in the experiment with DMS-114.
For `O=C(CC1(O)C(=O)Nc2c(Cl)ccc(Cl)c21)c1ccc2ccccc2c1` (stereo unspecified), the GI50 is 2.65 µM (inactive) in the experiment with M19-MEL; 12.6 µM (inactive) in the experiment on XF498; 10.2 µM (inactive) with LXFL 529; 12.9 µM (inactive) in the experiment on HOP-18; 17.9 µM (inactive) in the experiment on DLD-1; 5.78 µM (inactive) in the experiment with DMS-114.
`CN1C(c2ccccc2)CS(=O)(=O)CS1(=O)=O` (stereo unspecified): the GI50 with RXF 631, with M19-MEL, with XF498, with LXFL 529, in the experiment with HOP-18 and in the experiment with DLD-1 was > 100 µM (inactive) each time. Further, the GI50 in the experiment on DMS-114 was > 100 µM (inactive).
Take `CSCCC(C(=O)O)N(CC1(O)OCC(O)C(O)C1O)N=O` (stereo unspecified): the GI50 in the experiment with RXF 631, in the experiment on M19-MEL, in the experiment with XF498, in the experiment with LXFL 529, in the experiment with DLD-1 and in the experiment on DMS-114 was > 100 µM (inactive) in each case.
Regarding `CCCCCCCC(=O)NCC(O)CNC(=O)CCCCCCC`, the GI50 in the experiment with M19-MEL, in the experiment on XF498, with LXFL 529, in the experiment with HOP-18, with DLD-1 and in the experiment with DMS-114 was > 100 µM (inactive) throughout.
Consider `Clc1cc(Cl)cc(Nc2nc3ccccc3nc2-c2cccs2)c1`, for which the GI50 in the experiment with RXF 631 is 15.8 µM (inactive); in the experiment on M19-MEL, 24.2 µM (inactive); with XF498, 28.1 µM (inactive); with LXFL 529, 35.8 µM (inactive); in the experiment on HOP-18 it was 28.5 µM (inactive); in the experiment with DLD-1, 41.4 µM (inactive).
Turning to `O=c1ncccn1[C@@H]1O[C@H](CO)[C@H](O)C1O` (stereo partly specified), the GI50 in the experiment on M19-MEL, in the experiment on XF498, in the experiment on LXFL 529, in the experiment on HOP-18, in the experiment with DLD-1 and with DMS-114 was > 100 µM (inactive) in each case.
